Test results as given in paper PMC10803289, “Transport and inhibition mechanism of the human SGLT2–MAP17 glucose transporter” (Nature Structural & Molecular Biology, 2023).
Positions count from the first letter of the chain named. Where “and” joins values, the source holds several entries; their conditions need not be identical. Equal entries are not always repeated.

Columns and labels:
hSGLT2 D201A = biological target: T1, hSGLT2 D201A (Homo sapiens, UniProt P31639, D201A); experiment: SGLT2 inhibitor-binding assay (AS-MS), crude membrane, D201A mutant; set-up: expressed in transfected cells; host or cells: Expi293 cells, crude membrane fraction; conditions: 30 nM canagliflozin; D201A; replicates
T1 sequence (P31639 1-672 D201A): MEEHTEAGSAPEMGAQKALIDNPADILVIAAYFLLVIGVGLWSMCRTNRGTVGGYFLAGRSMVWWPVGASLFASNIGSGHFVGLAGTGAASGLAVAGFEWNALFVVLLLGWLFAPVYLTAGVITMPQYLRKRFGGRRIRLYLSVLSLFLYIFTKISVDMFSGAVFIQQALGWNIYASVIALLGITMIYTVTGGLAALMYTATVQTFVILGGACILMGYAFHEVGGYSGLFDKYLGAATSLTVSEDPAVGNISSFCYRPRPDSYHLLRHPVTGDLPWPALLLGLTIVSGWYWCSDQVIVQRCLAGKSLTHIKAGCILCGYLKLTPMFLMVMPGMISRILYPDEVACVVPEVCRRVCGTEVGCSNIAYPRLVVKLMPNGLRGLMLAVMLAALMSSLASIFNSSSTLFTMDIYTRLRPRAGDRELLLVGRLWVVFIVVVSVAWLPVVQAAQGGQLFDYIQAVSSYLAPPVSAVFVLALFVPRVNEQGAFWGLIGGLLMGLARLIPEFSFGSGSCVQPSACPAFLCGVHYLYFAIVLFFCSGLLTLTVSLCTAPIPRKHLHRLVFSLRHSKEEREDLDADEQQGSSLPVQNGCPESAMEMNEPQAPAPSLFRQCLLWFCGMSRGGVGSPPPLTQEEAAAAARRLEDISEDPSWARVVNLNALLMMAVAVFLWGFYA
T1 sequence (Q13113 1-114 partner): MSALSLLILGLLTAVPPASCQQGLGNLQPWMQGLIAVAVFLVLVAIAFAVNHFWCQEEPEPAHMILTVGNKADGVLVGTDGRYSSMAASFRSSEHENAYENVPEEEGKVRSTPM
Description: (§1) hSGLT2 complementary DNA and human MAP17 cDNA were synthesized and codon-optimized for expression in human cell lines. Both cDNAs were cloned into the pcDNA3.4 vector. The hSGLT2 sequence was fused with an N-terminal signal sequence from human trypsinogen 1, a His10 tag, and sfGFP, followed by a human rhinovirus 3C protease (HRV3C protease) recognition site. Point mutations were introduced into this construct using site-directed mutagenesis. These plasmids were utilized for all experimental procedures conducted in this study.
(§2) To examine the inhibition of binding to the crude membrane, mammalian Expi293 cells were co-transfected with the hMAP17 and hSGLT2 plasmids, as described. […] The extract solution from the filter plate was diluted with water containing candesartan as an internal standard, and the SGLT2 inhibitor concentration was quantified via LC–MS/MS.
(§3) Nonspecific binding was measured using the crude membrane of nontransfected Expi293 cells. Specific binding was calculated by subtracting nonspecific binding from the binding of hSGLT2-expressing cells. Specific binding was normalized to hSGLT2 protein expression levels, measured via FSEC. The equilibrium dissociation constant (Kd) and maximum number of binding sites (Bmax) were calculated via nonlinear regression in GraphPad Prism 8.4.3. […]

hSGLT2 F98A = biological target: T2, hSGLT2 F98A (Homo sapiens, UniProt P31639, F98A); experiment: SGLT2 inhibitor-binding assay (AS-MS), crude membrane, F98A mutant; set-up: expressed in transfected cells; host or cells: Expi293 cells, crude membrane fraction; conditions: 30 nM canagliflozin, replicates
T2 sequence (P31639 1-672 F98A): T1 sequence (P31639 1-672 D201A) with F98A, A201D
T2 sequence (Q13113 1-114 partner): T1 sequence (Q13113 1-114 partner)
Description: as §1, §2, §3

Cc1ccc([C@@H]2O[C@H](CO)[C@@H](O)[C@H](O)[C@H]2O)cc1Cc1ccc(-c2ccc(F)cc2)s1 [Canagliflozin]
Canagliflozin binding (% of WT) (hSGLT2 D201A): 127.94 % of WT and 124.539 % of WT and 148.349 % of WT
Canagliflozin binding (% of WT) (hSGLT2 F98A): -6.142 % of WT and -5.964 % of WT and -3.041 % of WT
